Reference: patent publication US20260070945A1, “MACROCYCLIC IMMUNOMODULATORS” (Bristol-Myers Squibb Company, priority 2022, published 2026)
Where a SMILES comes first, the peptide text is derived from it. Bridges are numbered along the chain shown (N, C = ends). [ ]: non-standard residue; d: D form. The star is where a group is joined. Phe(4-COOH) = N[C@@H](Cc1ccc(C(=O)O)cc1)C(=O)O; Bip = N[C@@H](Cc1ccc(-c2ccccc2)cc1)C(=O)O; Phe(3-Me) = Cc1cccc(C[C@H](N)C(=O)O)c1; hArg = N=C(N)NCCCC[C@H](N)C(=O)O; Cha = N[C@@H](CC1CCCCC1)C(=O)O; 12Ado = NCCCCCCCCCCCC(=O)O; Carboxymethyl = O=C(O)C*; NMeA = CN[C@@H](C)C(=O)O; Orn = NCCC[C@H](N)C(=O)O; Aun = NCCCCCCCCCCC(=O)O; Dab = NCC[C@H](N)C(=O)O; Abu = CC[C@H](N)C(=O)O; AEEA = NCCOCCOCC(=O)O

Molecular target: T1, PD-1/PD-L1 interaction (PE-labeled human PD-L1-Ig binding to Jurkat cell line over-expressing human PD-1) (Homo sapiens, UniProt Q15116)
T1 construct: expressed in transfected cells; host or cells: Jurkat
Assay: Jurkat-PD-1 Cell Binding High-Content Screening Assay (CBA)
Settings: Jurkat-hPD-1 cells, PE-labeled PD-L1-Ig 20 nM final; read-out: Jurkat HPD1 PDL1 IC50
In short: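 In this imaging assay, cells in 10% FCS medium see compound for 2 h at 37 °C and then labeled ligand at 20 nM final for 1 h. Paraformaldehyde fixation, Hoechst 33342 staining and dPBS washes precede image capture.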

T1 sequence (Q15116 25-288): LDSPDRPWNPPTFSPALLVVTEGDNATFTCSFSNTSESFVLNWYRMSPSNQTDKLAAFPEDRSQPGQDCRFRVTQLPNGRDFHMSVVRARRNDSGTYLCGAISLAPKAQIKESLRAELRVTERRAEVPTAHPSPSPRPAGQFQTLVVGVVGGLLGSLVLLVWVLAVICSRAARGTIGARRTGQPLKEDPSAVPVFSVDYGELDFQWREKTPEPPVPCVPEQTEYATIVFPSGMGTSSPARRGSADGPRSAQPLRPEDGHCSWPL

| Structure (SMILES) | IC50 |
| --- | --- |
| Cc1cccc(C[C@@H]2NC(=O)[C@H](CC(=O)O)NC(=O)[C@H](Cc3ccc(OCC(=O)O)cc3)NC(=O)[C@H](CCCCNC(=N)N)NC(=O)CSC[C@@H](C(=O)N[C@@H](CO)C(=O)NCCOCCOCC(=O)N[C@@H](CCCN)C(=O)NCCCCCCCCCCCC(=O)O)NC(=O)[C@H](CO)NC(=O)[C@H](C(C)C)NC(=O)[C@H](CC3CCCCC3)NC(=O)[C@H](CCN)NC(=O)[C@@H](CC(C)C)NC(=O)[C@H](C)N(C)C(=O)[C@H](C(C)C)NC(=O)[C@H](Cc3ccc(-c4ccccc4)cc3)NC(=O)[C@H](CC(C)C)NC2=O)c1 [Example 2122] ({CH2CO}-[hArg]Y(Carboxymethyl)D[Phe(3-Me)]L[Bip]V[NMeA][dL][Dab][Cha]VSCS[AEEA][Orn][12Ado]-OH; thioether N-14) | 16 nM |
| CC(C)C[C@@H]1NC(=O)[C@H](Cc2c[nH]c3ccccc23)NC(=O)[C@H](CC(=O)O)NC(=O)[C@H](Cc2ccc(OCC(=O)O)cc2)NC(=O)[C@H](CCCCNC(=N)N)NC(=O)CSC[C@@H](C(=O)NCC(=O)NCCOCCOCC(=O)N[C@@H](CCCN)C(=O)NCCCCCCCCCCCC(=O)O)NC(=O)[C@H](CO)NC(=O)[C@H](C(C)C)NC(=O)[C@H](CC2CCCCC2)NC(=O)[C@H](CCN)NC(=O)[C@@H](CC(C)C)NC(=O)[C@H](C)N(C)C(=O)[C@H](C(C)C)NC(=O)[C@H](Cc2ccc(-c3ccccc3)cc2)NC1=O [Example 2123] ({CH2CO}-[hArg]Y(Carboxymethyl)DWL[Bip]V[NMeA][dL][Dab][Cha]VSCG[AEEA][Orn][12Ado]-OH; thioether N-14) | 11.6 nM |
| CC[C@@H]1NC(=O)[C@H](C(C)C)NC(=O)[C@H](CC2CCCCC2)NC(=O)[C@H](CCN)NC(=O)[C@@H](CC(C)C)NC(=O)[C@H](C)N(C)C(=O)[C@H](C(C)C)NC(=O)[C@H](Cc2ccc(-c3ccccc3)cc2)NC(=O)[C@H](CC(C)C)NC(=O)[C@H](Cc2c[nH]c3ccccc23)NC(=O)[C@H](CC(=O)O)NC(=O)[C@H](Cc2ccc(OCC(=O)O)cc2)NC(=O)[C@H](CCCCNC(=N)N)NC(=O)CSC[C@@H](C(=O)NCC(=O)NCCOCCOCC(=O)N[C@@H](CCCN)C(=O)NCCCCCCCCCCCC(=O)O)NC1=O [Example 2124] ({CH2CO}-[hArg]Y(Carboxymethyl)DWL[Bip]V[NMeA][dL][Dab][Cha]V[Abu]CG[AEEA][Orn][12Ado]-OH; thioether N-14) | 17 nM |

Results, then the molecule that gave them:

| IC50 | Structure (SMILES) |
| --- | --- |
| 11.5 nM | CC(C)C[C@@H]1NC(=O)[C@H](Cc2c[nH]c3ccccc23)NC(=O)[C@H](CC(=O)O)NC(=O)[C@H](Cc2ccc(C(=O)O)cc2)NC(=O)[C@H](Cc2ccc(OCC(=O)O)cc2)NC(=O)CSC[C@@H](C(=O)N[C@@H](CCCN)C(=O)NCCOCCOCC(=O)NCCCCCCCCCCC(=O)O)NC(=O)[C@H](CC(=O)O)NC(=O)[C@H](C(C)C)NC(=O)[C@H](CC2CCCCC2)NC(=O)[C@H](CCN)NC(=O)[C@@H](CC(C)C)NC(=O)[C@H](C)N(C)C(=O)[C@H](C(C)C)NC(=O)[C@H](Cc2ccc(-c3ccccc3)cc2)NC1=O [Example 2125] ({CH2CO}-Y(Carboxymethyl)[Phe(4-COOH)]DWL[Bip]V[NMeA][dL][Dab][Cha]VDC[Orn][AEEA][Aun]-OH; thioether N-14) |
| 8.4 nM | CC(C)C[C@@H]1NC(=O)[C@H](Cc2c[nH]c3ccccc23)NC(=O)[C@H](CC(=O)O)NC(=O)[C@H](Cc2ccc(C(=O)O)cc2)NC(=O)[C@H](Cc2ccc(OCC(=O)O)cc2)NC(=O)CSC[C@@H](C(=O)N[C@@H](CCCN)C(=O)NCCOCCOCC(=O)NCCCCCCCCCCC(=O)O)NC(=O)[C@H](CCC(=O)O)NC(=O)[C@H](C(C)C)NC(=O)[C@H](CC2CCCCC2)NC(=O)[C@H](CCN)NC(=O)[C@@H](CC(C)C)NC(=O)[C@H](C)N(C)C(=O)[C@H](C(C)C)NC(=O)[C@H](Cc2ccc(-c3ccccc3)cc2)NC1=O [Example 2126] ({CH2CO}-Y(Carboxymethyl)[Phe(4-COOH)]DWL[Bip]V[NMeA][dL][Dab][Cha]VEC[Orn][AEEA][Aun]-OH; thioether N-14) |
